Publication PMC5021059 (Clinical, Cosmetic and Investigational Dermatology, 2016)

Target: T1, 5-α-reductase type I (Homo sapiens, UniProt P18405)
T1 sequence (P18405 1-259): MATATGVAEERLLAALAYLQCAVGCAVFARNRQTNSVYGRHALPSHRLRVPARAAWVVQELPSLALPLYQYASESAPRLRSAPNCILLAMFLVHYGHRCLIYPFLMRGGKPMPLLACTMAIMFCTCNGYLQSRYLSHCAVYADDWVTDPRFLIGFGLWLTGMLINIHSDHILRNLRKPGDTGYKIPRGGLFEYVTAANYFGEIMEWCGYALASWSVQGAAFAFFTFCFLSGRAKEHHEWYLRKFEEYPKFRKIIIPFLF
Format: biochemical

Row | SMILES | IC50
1 | CCCCCCCCCCCCCCC[C@@H](O)[C@@H](N)CO (racemic) [sphinganine] | 6.5±0.33 and 6.8±0.1 μM
2 | CC(C)(C)NC(=O)[C@H]1CC[C@H]2[C@@H]3CC[C@H]4NC(=O)C=C[C@]4(C)[C@H]3CC[C@]12C [finasteride] | 420 ± 20 nM
